From ChEMBL document CHEMBL4265871, “Novel alkylated azoles as potent antifungals” (Eur J Med Chem, 2017)

Legend:
Candida albicans [1] = experiment: Effect on sterol composition in Candida albicans ATCC 10231 assessed as unknown sterol level at 0.125 ug/mL incubated for 10 mins by GC-MS analysis (reference value: 1.88 to 2.78%)
Candida albicans [2] = experiment: Effect on sterol composition in Candida albicans ATCC 64124 assessed as eburicol level at 1.95 ug/mL incubated for 10 mins by LC-MS analysis (reference value: 6.28%)
Candida albicans [3] = experiment: Fungicidal activity against Candida albicans ATCC 10231 assessed as reduction in microbial growth at 4 times MIC incubated for 6 hrs by time kill assay; type: functional
Candida albicans [4] = experiment: Effect on sterol composition in Candida albicans ATCC 64124 assessed as unknown sterol level at 1.95 ug/mL incubated for 10 mins by LC-MS analysis (reference value: 2.67 to 6.98%)
Candida albicans [5] = experiment: Effect on sterol composition in Candida albicans ATCC 10231 assessed as eburicol level at 0.125 ug/mL incubated for […] by GC-MS analysis
A549 = experiment: Toxicity in human A549 cells assessed as reduction in cell viability up to 7.8 ug/ml incubated for 24 hrs by resazurin dye based assay; conditions: a549, 24 h
Candida albicans [6] = experiment: Fungicidal activity against Candida albicans ATCC 10231 assessed as reduction in microbial growth at 4 times MIC incubated for 9 hrs by time kill assay; type: functional

CCCCCCC(O)(Cn1cncn1)c1ccc(Cl)cc1Cl (configuration not stated)
Activity (Candida albicans [1]): 4.36 - 5.57%
Activity (Candida albicans [2]): 47.97%
Activity (Candida albicans [3]): 1.25 log10CFU
Activity (Candida albicans [4]): 4.25 - 13.04%
Activity (Candida albicans [5]): 2.93%

CCCCCCCCC(O)(Cn1cncn1)c1ccc(F)cc1F (configuration not stated)
Activity (A549): Non-Toxic

CCCCCCC(O)(Cn1cncn1)c1ccc(F)cc1F (configuration not stated)
Activity (Candida albicans [6]): >=2 log10CFU
